SMILES strings stand for the structures. Non-standard residues stand in square brackets, D forms with d. Residues, ends and D or L forms follow the SMILES beside them.

One data set has as its system rats. Put plainly: Tail flick analgesic test. As to conditions: intranasally 0.005 mg/kg. In kind it is in vivo. The text has this: Opium-like activity was studied in a classical way by […] tests on isolated organs: - Test GPI (Guang T.A, Kosterlitz H.W, Agonist and antagonist action of morphine like drugs on the guinea pigs isolated ileum, Br.J. Pharmacol., 1966, V.27N3.P.514-527 - Test MVD; Hughs J., Kosterlitz H.W., Leslie F.M, Effect of morphine on adrenergic transmission in mouse is different. Assessment of agonist and antagonist potencies of narcotics, Br.J. Pharmacol., 1975, V. 53, N3-P. 371-381) As well as tests to determine opium-like activities by the […] hot plate test (Aukier S.I., New hot plate tests to qualify analgesic and narcotic antagonist activities, Eur.J. Pharmacol., 174 - V.27 Ni p.1-4) and "Tail flick" on rats (D'Amour F.E., Smith D.L, A method for determining loss, Exp.Ther.,1974, V.72 Ni-p.74-79).
The analgesic activities of those peptides were tested by the "tail flick" method on rats which received intranasally a dose of 0.005 mg/kg. A real analgesic effect of 242 units was characteristic to the peptide H-Arg-Tyr-D-Ala-Phe-Gly-OH. Table 2 outlines the findings with regard to the opium-like activity for this peptide group.

Take `C[C@@H](NC(=O)[C@H](Cc1ccc(O)cc1)NC(=O)[C@@H](N)CCCNC(=N)N)C(=O)N[C@@H](Cc1ccccc1)C(=O)NCC(=O)O` [H-Arg-Tyr-D-Ala-Phe-Gly-OH] (H-RY[dA]FG-OH): in the data set on rats, the analgesic effect is on record as 242 units. Moreover, the solubility in alcohol result (alcohol) was “not well dissolvable in alcohol”. The solubility in chloroform entry (chloroform) is “nonsoluble in chloroform”. For the same compound, the solubility in water entry (water) was “dissolvable in water”.

The values above are taken from patent EP0779076A1, “PEPTIDE, A METHOD OF OBTAINING IT AND A PHARMACEUTICAL COMPOUND BASED ON IT” (priority 1994, dated 1996).
